Experimental data as given in the supplement of paper PMC3974653.
Structures can show the parent of a compound that is named as a salt.

Test system: MTT (mouse pheochromocytoma)
Experiment: IC50 of cell viability (ATP content)
Conditions: (24 or 48 h)
Outline: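 CellTiter-Glo ATP luminescence, read after 15 minutes, was used to assess MTT mouse pheochromocytoma cells treated for 24 or 48 hrs with library compounds (final 0.5 nM to 46 µM, 8 concentrations). The cells had been plated at 5 µl of 200,000 cells/ml per well in white 1536-well plates in DMEM with 5% FBS and 1% horse serum and cultured overnight at 37°C, 5% CO2. Normalisation set positive-control wells to 100% and DMSO wells to 0%. The IC50 was then determined by four-parameter logistic fitting.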

Row | SMILES | IC50 of cell viability [µM]
1 | CC(C)[C@H](N)C(=O)OCC(CO)OC[N]1C=NC2=C1\N=C(\N)NC2=O (some centres not stated) [VALGANCICLOVIR HYDROCHLORIDE] | > 46
2 | COc1ccc(N[S+](=O)([O-])c2ccc(N)cc2)nn1 [Sulfamethoxypyridazine] | > 46
3 | C=C(C)[C@H]1CN[C@H](C(=O)O)[C@H]1CC(=O)O [KAINIC ACID] | > 46
4 | C=CCN1CC(C(=O)N(CCCN(C)C)C(=O)NCC)CC2c3cccc4[nH]cc(c34)CC21 (configuration not stated) [CABERGOLINE] | > 46
5 | O=C(Nc1ccc(/C=C/c2ccc(NC(=O)c3cc([S+](=O)([O-])O)c4cccnc4c3O)cc2[S+](=O)([O-])O)c([S+](=O)([O-])O)c1)c1cc([S+](=O)([O-])O)c2cccnc2c1O [Ubistatin A] | > 46
6 | Cc1cccc(N(C)C(=S)Oc2ccc3ccccc3c2)c1 [Tolnaftate] | > 46
7 | O=C1/C(=C2\Nc3ccccc3C2=O)Nc2ccccc21 [INDIGO] | > 46
8 | Clc1ccc2nsnc2c1NC1=NCCN1 [Tizanidina] | > 46
9 | CC#CCC(C)[C@H](O)/C=C/C1[C@H](O)C[C@@H]2C/C(=C\CCCC(=O)O)C[C@H]12 (some centres not stated) [Iloprost] | > 46
10 | CN1Cc2c(N)cccc2C(c2ccccc2)C1.O=C(O)/C=C\C(=O)O (configuration not stated) [NOMIFENSINE MALEATE] | > 46
11 | [O-][n+]1cc[n+]([O-])c2ccccc21 [Quindoxin] | > 46
12 | CCN1\N=C(\C(O)=O)C(=O)C2=C1C=C3OCOC3=C2 [Cinoxacin] | > 46
13 | O=S(=O)(O)NC1CCCCC1 [Cyclamic acid] | > 46
14 | CCC(=O)O[C@@H]1CC[C@@H]2[C@@H]3CC\C4=C\C(=O)CC[C@@]4(C)[C@H]3CC[C@@]12C [Testosterone propionate] | > 46
15 | CC(=O)[C@H]1CC[C@H]2C3CC=C4C[C@@H](O)CC[C@]4(C)C3CC[C@]12C (some centres not stated) [Pregnenolona] | > 46
16 | CCOC(=O)/C=C(C)/C=C/C=C(C)/C=C/c1c(C)cc(OC)c(C)c1C [ETRETINATE] | > 46
17 | Cc1ccc2c(Cl)cc(Cl)c(O)c2n1 [5,7-Dichloro-8-hydroxy-2-methylquinoline] | > 46
18 | C=Cc1ccccc1 [Styrene] | > 46
19 | COC1=C2OC3C(O)\C=C/C4[C@H]5CC(=C2[C@@]34CCN5)C=C1 (some centres not stated) [N-Norcodeine] | > 46
20 | Cc1cccc(C)c1NC(=O)CN1CCCC1=O [Nefiracetam] | > 46
21 | O.O=S(=O)([O-])CC(S)CS.[Na+] (configuration not stated) [2,3-DIMERCAPTOPROPANE-1-SULFONATE SODIUM] | > 46
22 | NC12CC3CC(CC(C3)C1)C2 [AMANTIDINE] | > 46

Row | SMILES | IC50 of cell viability [µM]
23 | CCCCCCCC/C=C\CCCCCCCC(=O)O [Oleic acid] | > 46
24 | CN(C)C(=N)NC(=N)N [Metformin hydrochloride] | > 46
25 | Cc1ncc(CNC(=O)N(CCCl)N=O)c(N)n1 [NIMUSTINE] | > 46
26 | O=[N+]([O-])c1ccc(F)c([N+](=O)[O-])c1 [1-Fluoro-2,4-dinitrobenzene] | > 46
27 | CCCCCCCCCCCCCCCC(=O)OC[C@@H](COP(=O)([O-])OCC[N+](C)(C)C)OC(=O)CCCCCCCCCCCCCCC [2,3-Dipalmitoyl-sn-glycero-1-phosphocholine] | > 46
28 | C=CCOc1ccc(CC(=O)O)cc1Cl [Alclofenac] | > 46
29 | NC(=O)NS(=O)(=O)c1ccc(N)cc1 [SULFACARBAMIDUM] | > 46
30 | CC1=CC(=CC(=C1C\C2=N\CCN2)C)C(C)(C)C [Xylometazoline hydrochloride] | > 46
31 | Cc1cc(O)cc2c1O[C@](C)(CCC[C@H](C)CCC[C@H](C)CCCC(C)C)CC2 [DELTA-TOCOPHEROL, D-] | > 46
32 | [NH2][Pt]1([NH2])[O]C(=O)C2(CCC2)C(=O)[O]1 [CARBOPLATIN] | > 46
33 | COP(=S)(OC)Oc1ccc([S+](=O)([O-])N(C)C)cc1 [FAMPHUR] | > 46
34 | CC(C)(C)c1ccc(O)cc1 [4-T-BUTYLPHENOL FORMALDEHYDE RESIN] | > 46
35 | N#CCC(=O)NN [Ciacetacida] | > 46
36 | C[C@H](O)CN(C)C | > 46
37 | CCCC(CCC)C(=O)O [Valproic acid] | > 46
38 | CC(=O)O[C@H]1CC[C@]\2(C)[C@@H]3CC[C@@]4(C)[C@H](CCC4=O)[C@@H]3C\C=C2C1 [Dehydroisoandosterone 3-acetate] | > 46
39 | CCCCCCCCCCCCCCCCCC[N+](C)(C)CCC[Si](OC)(OC)OC | > 46
40 | CC(C)(C)CC(C)(C)c1ccc(O)c(-n2nc3ccccc3n2)c1 [OCTRIZOLUM] | > 46
41 | O=C1[O][Mg]2([O]C(=O)c3ccccc3[O]2)[O]c2ccccc21 [MAGNESIUM SALICYLATE] | > 46
42 | Cl/C(=C\n1cncn1)c1ccc(Cl)cc1Cl [Loreclezole hydrochloride] | > 46
43 | CC(C)(O)c1ccccc1CC[C@H](SCC1(CC(=O)[O-])CC1)c1cccc(/C=C/c2ccc3ccc(Cl)cc3n2)c1 [MONTELUKAST SODIUM] | > 46

The remaining lines, values ahead:

Row | IC50 of cell viability [µM] | SMILES
44 | > 46 | Cc1ccc(-n2nc(C(C)(C)C)cc2NC(=O)Nc2ccc(OCCN3CCOCC3)c3ccccc23)cc1 [DORAMAPIMOD]
45 | > 46 | C[C@H]1C[C@H]2[C@@H]3CCC4=CC(=O)C=C[C@]4(C)[C@@]3(Cl)[C@@H](O)C[C@]2(C)[C@@]1(O)C(=O)CO [Beclomethasone]
46 | > 46 | COC(=O)C1=C(C)NC(C)=C(C(=O)OCC(C)C)C1c1ccccc1[N+](=O)[O-] (configuration not stated) [Nisoldipine]
47 | > 46 | CCCN[C@@H](C)C(=O)Nc1c(C)csc1C(=O)OC [Articaine hydrochloride]
48 | > 46 | COc1cc(N)c(Cl)cc1C(=O)NC1CCN(Cc2ccccc2)CC1 [Clebopride maleate]
49 | > 46 | O=C(CCN1CCN(CCO)CC1)N1c2ccccc2Sc2ccc(C(F)(F)F)cc21 [Ftorpropazine]
50 | > 46 | CCOC(=O)[C@H](CCc1ccccc1)N[C@H]1CCCN2CCC[C@@H](C(=O)O)N2C1=O [Cilazapril]
51 | > 46 | C/C=C\C(=O)N(CC)c1ccccc1C [Crotamiton]
52 | > 46 | CN1CCC[C@H](CC2c3ccccc3Sc3ccccc32)C1 [Metixene hydrochloride]
53 | > 46 | C[C@]12C=CC(=O)N[C@@H]1CC[C@@H]1C2CC[C@]2(C)C(C(=O)Nc3cc(C(F)(F)F)ccc3C(F)(F)F)CC[C@@H]12 (some centres not stated) [Dutasteride]
54 | > 46 | COc1ccc2nc(NC(=O)Nc3ccccc3)sc2c1 [Frentizole]
55 | > 46 | [H]C1(CN)CC[C@@]([H])(CC1)C(=O)OC2=CC=C(CCC(O)=O)C=C2 (configuration not stated) [Cetraxate hydrochloride]
56 | > 46 | NC(=O)C1(N2CCCCC2)CCN(CCCC(=O)c2ccc(F)cc2)CC1 [PIPAMPERONE HYDROCHLORIDE]
57 | > 46 | CN1C2CCC1CC(NC(=O)n1c(=O)[nH]c3ccccc31)C2 (configuration not stated) [ITASETRON HYDROCHLORIDE HYDRATE]
58 | > 46 | CN(C)CCOC(c1ccccc1)c1ccccc1 [Diphenhydramine]
59 | > 46 | CCc1oc2ccccc2c1C(=O)c1cc(Br)c(O)c(Br)c1 [benzbromarone]
60 | > 46 | CNCCCC12CCC(c3ccccc31)c1ccccc12 [MAPROTILINE]
61 | > 46 | C[C@@H](C(=O)O)c1ccc(-c2ccccc2)c(F)c1 [Flurbiprofen]
62 | > 46 | Cc1cccc(C)c1NC(=O)CC12CCCN1CCC2 [PILSICAINIDE HYDROCHLORIDE]
63 | > 46 | CC(=O)O.N=C(N)NCCCC(NC(=O)C1CCCN1C(=O)C1CSSCCC(=O)NC(Cc2ccc(O)cc2)C(=O)NC(Cc2ccccc2)C(=O)NC(CCC(N)=O)C(=O)NC(CC(N)=O)C(=O)N1)C(=O)NCC(N)=O.O.O.O (configuration not stated) [DESMOPRESSIN]
64 | > 46 | CC(=O)Oc1cc(C(F)(F)F)ccc1C(=O)O [Triflusal]
65 | > 46 | CC1(C)S[C@@H]2[C@H](NC(=O)C(C(=O)Oc3ccc4c(c3)CCC4)c3ccccc3)C(=O)N2[C@H]1C(=O)O (some centres not stated) [Carbenicillin indanyl]
66 | > 46 | c1ccc2c(CC3=NCCN3)cccc2c1 [NAPHAZOLINE]
67 | > 46 | OCc1ccccc1O [SALICYL ALCOHOL]
68 | > 46 | CC(C)c1nc(CN(C)C(=O)N[C@H](C(=O)N[C@@H](Cc2ccccc2)C[C@H](O)[C@H](Cc2ccccc2)NC(=O)OCc2cncs2)C(C)C)cs1 [Ritonavir]
69 | > 46 | CCC(C(=O)NC(N)=O)c1ccccc1 (configuration not stated) [ETHYLPHENACEMIDE]
70 | > 46 | C[N+]1(CC2COC(c3ccccc3)(c3ccccc3)O2)CCCCC1 (configuration not stated) [DIPHENYLPIPERIDINOMETHYLDIOXOLAN IODIDE (Anacolin)]
71 | > 46 | C[C@]12C[C@H](O)[C@H]3[C@@H](CCC/4=C/C(=O)CC[C@]34C)[C@@H]1CC[C@@H]2C(=O)CO [Corticosterone]
72 | > 46 | CC(C)C[C@H](NC(=O)[C@@H](Cc1c[nH]c2ccccc12)NC(=O)[C@@H](Cc1ccc(O)cc1)NC(=O)[C@@H](CO)NC(=O)[C@@H](Cc1c[nH]c2ccccc12)NC(=O)C(Cc1c[nH]cn1)NC(=O)C1CCC(=O)N1)C(=O)N[C@@H](CCCNC(=N)N)C(=O)N1CCC[C@@H]1C(=O)NCC(N)=O (some centres not stated) [TRIPTORELIN PAMOATE]
